The record followed here is publication PMC10413649 (Science Advances, 2023).

The subject of test [1] is laser-induced DNA damage sites in U2OS cells. Nature of the test: Laser microirradiation, GFP-PAXX and mCherry-XLF coexpressed in U2OS cells with WT or mutated Ku70. It is filed as cell-based, human. Particulars: U2OS cells expressing Ku70 mutants; Fig. 5, B to E.
Test [2] has the same test system. The experiment in a line: Laser microirradiation, GFP-PAXX recruitment in mAID-Ku70 U2OS cells with WT or mutated Ku70. It is filed as cell-based, human. Particulars: mAID-Ku70 U2OS cells + IAA, Fig. 3B. An excerpt: We also purified three mutants of Ku70 complexed to WT Ku80 (fig. S7). […] To assess the impact of Ku70 mutations in cells, we engineered a system in U2OS cells to allow replacement of endogenous Ku70 by mutant forms of the protein (Fig. 3A). As Ku is essential for the viability of human cells, we first knocked down endogenous Ku70 expression via the constitutive expression of a short hairpin–mediated RNA (shRNA) combined with cell rescue through expression of Ku70 tagged with a mini auxin-inducible degron (mAID). This allows for rapid degradation of endogenous Ku70 upon addition of auxin [indole-3-acetic acid (IAA)] ([28]). This system permits a strong and fast Ku70 depletion, with concomitant Ku80 depletion due to reciprocal stabilization of both Ku subunits (Fig. 3A).
The generation of U2OS cells expressing a mAID-Ku70 in place of the endogenous protein was achieved as follows. First, U2OS cells were cotransduced with two lentiviral constructs allowing both the expression of an shRNA against Ku70 and the expression of a Ku70 protein resistant to the shRNA and fused to a mAID tag at its N terminus. The latter vector also expresses a puromycin resistance gene, enabling the selection of a transduced cell population. […]

For test [3], the system named is mutants of Ku70 complexed to WT Ku80. The experiment in a line: ITC, mutant Ku70 (complexed to WT Ku80) with P-KBM. It is filed as binding. The settings on record: three Ku70 mutants complexed to WT Ku80 (fig. S7). An excerpt: DNA-PKcs and full-length His-tagged Ku70/80 were expressed and purified according to ([6]). For crystallography and ITC, the full-length Ku70/80 and a truncated version deleted of its C terminus regions called KuΔC [Ku70 (1 to 544)/Ku80 (1 to 555)], were expressed in Sf21 insect cells using a MultiBac expression system. The Ku80 subunit contains a 10xHis-tag, followed by a Tobacco Etch Virus (TEV) protease site on its N terminus. The Ku70/Ku80 heterodimer was purified according to the protocol described in ([10]). The three KuFL variants with single mutation H162A, R165E, or R517E on Ku70 subunits were expressed in insect cells and purified with the same protocol.
Interaction between Ku-DNA complex and the different peptides (WT and variants) was measured by isothermal calorimetry using a VP-ITC machine. For ITC measurements, the full-length Ku heterodimer was used with the DNA G and F as previously used in ([14]). Before measurements, the Ku heterodimer was extensively dialyzed against buffer [20 mM tris (pH 8), 150 mM NaCl, and 5 mM β-mercaptoethanol]. The cell reaction (1.8 ml) was loaded with the preformed Ku-DNA complex at a 1:1.2 molar ratio respectively. Ku was loaded at 5 μM concentration. The syringe (300 μl) was loaded with the different peptides at different concentrations ranging between 50 and 100 μM. The Ku-DNA complex was titrated by automatic injections of 10 μl at 25°C. […]
(In general: Isothermal titration calorimetry measures the heat released or taken up as one component is titrated into another.)

In test [4] the test system is damaged chromatin fraction of U2OS cells expressing WT or mutated Ku70. Nature of the test: Western blot of chromatin fractions after calicheamicin. The settings on record: 3 nM calicheamicin for 1 hour, Fig. 3E. The class given is cell-based, human. Background: In western blotting, separated proteins are transferred to a membrane and probed.
The test system of a further test is XLF. Nature of the test: Direct PAXX-XLF interaction test. The class given is binding. Particulars: tested outside the DNA-PK LR complex; method not described.

Consider “GFP-PAXX: GFP-tagged PAXX construct expressed in U2OS cells”, for which the “recruitment of coexpressed GFP-PAXX / mCherry-XLF to DNA damage sites with Ku70 mutations” value in test [1] is on record as “compromised to various extents”. For the molecule “WT Ku70: recombinant wild-type Ku70 used to replace degraded endogenous Ku70”, in test [2] (complemented with WT Ku70), the “PAXX recruitment to microirradiated areas, restored by recombinant Ku70” value is “restored to levels similar to those in native U2OS cells”. `CC[C@H](C)[C@H](NC(=O)[C@H](CC(C)C)NC(=O)[C@H](CO)NC(=O)[C@H](CCC(=O)O)NC(=O)CNC(=O)[C@@H]1CCCN1C(=O)[C@H](CS)NC(=O)[C@H](CCCNC(=N)N)NC(=O)[C@H](CCCNC(=N)N)NC(=O)[C@H](CCCNC(=N)N)NC(C)=O)C(=O)N[C@@H](CC(N)=O)C(=O)N1CCC[C@H]1C(=O)NCC(=O)N[C@@H](Cc1ccccc1)C(=O)N[C@@H](CCCCN)C(=O)N[C@@H](CO)C(=O)N[C@@H](CCCCN)C(=O)N[C@@H](CCCCN)C(=O)N1CCC[C@H]1C(=O)N[C@@H](C)C(=O)NCC(=O)NCC(=O)N[C@H](C(=O)N[C@@H](CC(=O)O)C(=O)N[C@@H](Cc1ccccc1)C(=O)N[C@@H](CC(=O)O)C(=O)N[C@@H](CCC(=O)O)C(=O)N[C@H](C(=O)O)[C@@H](C)O)C(C)C` [KBM]: the “residual interaction of Ku70 mutants with P-KBM (ITC, words)” value in test [3] is recorded as “no residual interaction”.

For the molecule “PAXX: full-length PAXX, paralog of XRCC4 and XLF, 6xHis-tag, expressed in E. coli; WT protein also expressed in cells”, the “recruitment to damaged chromatin fraction, Ku70 Patch 1 or Patch 2 mutated” value in test [4] is recorded as “not detected in damaged chromatin fraction”. For the same molecule, in the test on XLF, the “direct interaction of PAXX and XLF” value was “did not observe a direct interaction when tested”. In addition, the “PAXX recruitment to damage sites under Ku depletion” value in test [2] (no complementation) is listed as “abolished under Ku depletion conditions”.
